Measured values from ChEMBL document CHEMBL4804286, “3-amino-4-(4-(4 (dimethylcarbamoyl) phenyl)-1,4-diazepan-1-yl) thieno [2,3-b] pyridine-2-carboxamide for use in cancer therapy and formulations comprising the same” (2020).
Values joined by “and” are separate entries in the source; they are usually repeats but may differ in a detail not shown here. Identical values can stand only once.

What was measured:
Set-up in all cases: scale not given: the % may be the effect or the level left
[1] = target: Mitogen-activated protein kinase kinase kinase 2 (Homo sapiens) (UniProt Q9Y2U5); test: Inhibition of human MAP3K2 assessed as percent of control at 2000 nM by KINOMEscan assay relative to control
[2] = target: Serine/threonine-protein kinase PAK 1 (Homo sapiens) (UniProt Q13153); test: Inhibition of human PAK1 assessed as percent of control at 2000 nM by KINOMEscan assay relative to control
[3] = test system: Hepatocyte growth factor receptor (Homo sapiens), P08581 [M1250T]; test: Inhibition of human MET M1250T mutant assessed as percent of control at 2000 nM by KINOMEscan assay relative to control
[4] = target: Phosphatidylinositol 3-kinase C2 domain-containing subunit gamma (Homo sapiens) (UniProt O75747); test: Inhibition of human PIK3C2G assessed as percent of control at 2000 nM by KINOMEscan assay relative to control
[5] = target: Dual specificity protein kinase CLK1 (Homo sapiens) (UniProt P49759); test: Inhibition of human CLK1 assessed as percent of control at 2000 nM by KINOMEscan assay relative to control
[6] = target: Serine/threonine-protein kinase TAO3 (Homo sapiens) (UniProt Q9H2K8); test: Inhibition of human TAOK3 assessed as percent of control at 2000 nM by KINOMEscan assay relative to control
[7] = target: Megakaryocyte-associated tyrosine-protein kinase (Homo sapiens) (UniProt P42679); test: Inhibition of human CTK assessed as percent of control at 2000 nM by KINOMEscan assay relative to control
Megakaryocyte-associated tyrosine-protein kinase (Homo sapiens), sequence (P42679 whole entry, the tested form may be a part): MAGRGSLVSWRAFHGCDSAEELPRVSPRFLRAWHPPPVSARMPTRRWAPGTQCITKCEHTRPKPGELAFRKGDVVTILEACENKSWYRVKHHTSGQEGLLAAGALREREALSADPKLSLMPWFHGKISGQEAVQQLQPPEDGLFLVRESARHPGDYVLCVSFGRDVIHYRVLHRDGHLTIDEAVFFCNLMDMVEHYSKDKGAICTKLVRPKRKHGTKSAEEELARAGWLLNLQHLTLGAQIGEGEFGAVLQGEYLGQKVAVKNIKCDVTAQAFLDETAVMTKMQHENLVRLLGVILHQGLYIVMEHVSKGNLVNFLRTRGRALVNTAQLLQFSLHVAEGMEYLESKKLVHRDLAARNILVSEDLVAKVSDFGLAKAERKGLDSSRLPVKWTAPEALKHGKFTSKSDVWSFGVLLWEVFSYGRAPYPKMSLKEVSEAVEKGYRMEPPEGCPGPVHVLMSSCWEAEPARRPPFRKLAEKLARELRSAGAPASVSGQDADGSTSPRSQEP

[8] = target: Non-receptor tyrosine-protein kinase TYK2 (Homo sapiens) (UniProt P29597); test: Inhibition of human TYK2 JH2 pseudokinase domain assessed as percent of control at 2000 nM by KINOMEscan assay relative to control
[9] = target: Serine/threonine-protein kinase BRSK2 (Homo sapiens) (UniProt Q8IWQ3); test: Inhibition of human BRSK2 assessed as percent of control at 2000 nM by KINOMEscan assay relative to control
[10] = target: Proto-oncogene tyrosine-protein kinase ROS (Homo sapiens) (UniProt P08922); test: Inhibition of human ROS1 assessed as percent of control at 2000 nM by KINOMEscan assay relative to control
Proto-oncogene tyrosine-protein kinase ROS (Homo sapiens), sequence (P08922 whole entry): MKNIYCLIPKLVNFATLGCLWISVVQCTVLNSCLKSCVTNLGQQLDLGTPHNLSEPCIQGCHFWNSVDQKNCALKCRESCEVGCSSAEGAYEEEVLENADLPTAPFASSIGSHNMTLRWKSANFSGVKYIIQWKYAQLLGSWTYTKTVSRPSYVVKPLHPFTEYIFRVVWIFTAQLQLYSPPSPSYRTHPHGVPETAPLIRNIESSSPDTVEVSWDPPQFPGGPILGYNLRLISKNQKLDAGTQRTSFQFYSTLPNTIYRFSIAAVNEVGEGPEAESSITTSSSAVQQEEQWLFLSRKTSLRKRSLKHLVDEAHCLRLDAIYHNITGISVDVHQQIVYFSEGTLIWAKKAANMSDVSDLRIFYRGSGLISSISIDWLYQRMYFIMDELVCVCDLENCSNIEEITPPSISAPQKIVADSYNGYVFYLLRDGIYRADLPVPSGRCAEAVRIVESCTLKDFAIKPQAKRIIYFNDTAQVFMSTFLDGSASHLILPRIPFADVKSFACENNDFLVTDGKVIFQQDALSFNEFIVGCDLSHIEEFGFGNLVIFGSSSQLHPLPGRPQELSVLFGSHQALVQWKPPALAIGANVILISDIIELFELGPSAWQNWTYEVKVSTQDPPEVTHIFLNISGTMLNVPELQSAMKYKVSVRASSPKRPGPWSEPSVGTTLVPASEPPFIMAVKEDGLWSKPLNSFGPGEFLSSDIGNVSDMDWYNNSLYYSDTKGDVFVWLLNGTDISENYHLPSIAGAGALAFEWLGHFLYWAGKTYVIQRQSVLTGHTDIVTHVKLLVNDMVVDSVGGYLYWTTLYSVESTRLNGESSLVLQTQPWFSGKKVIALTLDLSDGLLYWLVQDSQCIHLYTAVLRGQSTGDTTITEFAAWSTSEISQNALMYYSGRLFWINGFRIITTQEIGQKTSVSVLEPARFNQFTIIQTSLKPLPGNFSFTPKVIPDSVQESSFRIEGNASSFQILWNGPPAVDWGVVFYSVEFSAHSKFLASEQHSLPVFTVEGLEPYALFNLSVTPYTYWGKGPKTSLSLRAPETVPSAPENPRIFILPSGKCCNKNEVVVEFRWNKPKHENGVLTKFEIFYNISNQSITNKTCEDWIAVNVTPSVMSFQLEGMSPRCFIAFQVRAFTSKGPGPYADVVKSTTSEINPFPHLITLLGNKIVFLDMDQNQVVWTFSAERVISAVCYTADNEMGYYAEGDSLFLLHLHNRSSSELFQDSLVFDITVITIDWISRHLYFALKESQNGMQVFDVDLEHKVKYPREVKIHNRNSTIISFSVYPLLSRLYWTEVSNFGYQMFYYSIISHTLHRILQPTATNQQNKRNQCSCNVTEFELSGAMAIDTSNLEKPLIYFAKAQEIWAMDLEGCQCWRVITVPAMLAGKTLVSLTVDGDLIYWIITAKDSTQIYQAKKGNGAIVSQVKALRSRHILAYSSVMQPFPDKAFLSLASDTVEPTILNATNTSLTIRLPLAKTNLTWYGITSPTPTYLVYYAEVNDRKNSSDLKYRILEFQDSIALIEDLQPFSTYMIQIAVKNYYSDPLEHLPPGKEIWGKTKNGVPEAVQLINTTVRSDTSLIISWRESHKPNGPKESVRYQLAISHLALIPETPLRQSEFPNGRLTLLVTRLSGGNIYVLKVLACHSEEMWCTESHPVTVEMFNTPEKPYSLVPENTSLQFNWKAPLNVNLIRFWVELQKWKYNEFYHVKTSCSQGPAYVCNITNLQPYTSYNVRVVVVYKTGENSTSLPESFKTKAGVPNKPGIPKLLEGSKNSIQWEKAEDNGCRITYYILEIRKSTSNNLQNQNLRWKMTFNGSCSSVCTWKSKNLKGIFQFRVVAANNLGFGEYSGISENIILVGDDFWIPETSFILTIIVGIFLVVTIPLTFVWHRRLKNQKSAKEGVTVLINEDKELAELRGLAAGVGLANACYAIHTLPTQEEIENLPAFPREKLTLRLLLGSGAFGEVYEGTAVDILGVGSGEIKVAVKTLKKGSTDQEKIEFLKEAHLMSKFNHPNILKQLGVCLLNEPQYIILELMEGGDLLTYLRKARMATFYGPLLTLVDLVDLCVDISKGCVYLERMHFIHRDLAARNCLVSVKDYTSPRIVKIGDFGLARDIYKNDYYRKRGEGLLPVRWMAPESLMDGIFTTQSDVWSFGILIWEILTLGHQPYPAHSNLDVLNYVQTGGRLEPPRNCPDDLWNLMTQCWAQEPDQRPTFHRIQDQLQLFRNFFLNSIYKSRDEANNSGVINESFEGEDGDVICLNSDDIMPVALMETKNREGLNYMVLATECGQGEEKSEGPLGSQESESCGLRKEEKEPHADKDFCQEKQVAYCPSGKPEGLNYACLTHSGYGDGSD

[11] = test system: Tyrosine-protein kinase ABL1 (Homo sapiens), P00519 [Q252H]; test: Inhibition of non-phosphorylated human ABL1 Q252H mutant assessed as percent of control at 2000 nM by KINOMEscan assay relative to control
[12] = target: Serine/threonine-protein kinase Nek7 (Homo sapiens) (UniProt Q8TDX7); test: Inhibition of human NEK7 assessed as percent of control at 2000 nM by KINOMEscan assay relative to control
[13] = target: Mitogen-activated protein kinase kinase kinase 10 (Homo sapiens) (UniProt Q02779); test: Inhibition of human MLK2 assessed as percent of control at 2000 nM by KINOMEscan assay relative to control
[14] = target: Homeodomain-interacting protein kinase 3 (Homo sapiens) (UniProt Q9H422); test: Inhibition of human HIPK3 assessed as percent of control at 2000 nM by KINOMEscan assay relative to control
Homeodomain-interacting protein kinase 3 (Homo sapiens), sequence (Q9H422 whole entry, looked up): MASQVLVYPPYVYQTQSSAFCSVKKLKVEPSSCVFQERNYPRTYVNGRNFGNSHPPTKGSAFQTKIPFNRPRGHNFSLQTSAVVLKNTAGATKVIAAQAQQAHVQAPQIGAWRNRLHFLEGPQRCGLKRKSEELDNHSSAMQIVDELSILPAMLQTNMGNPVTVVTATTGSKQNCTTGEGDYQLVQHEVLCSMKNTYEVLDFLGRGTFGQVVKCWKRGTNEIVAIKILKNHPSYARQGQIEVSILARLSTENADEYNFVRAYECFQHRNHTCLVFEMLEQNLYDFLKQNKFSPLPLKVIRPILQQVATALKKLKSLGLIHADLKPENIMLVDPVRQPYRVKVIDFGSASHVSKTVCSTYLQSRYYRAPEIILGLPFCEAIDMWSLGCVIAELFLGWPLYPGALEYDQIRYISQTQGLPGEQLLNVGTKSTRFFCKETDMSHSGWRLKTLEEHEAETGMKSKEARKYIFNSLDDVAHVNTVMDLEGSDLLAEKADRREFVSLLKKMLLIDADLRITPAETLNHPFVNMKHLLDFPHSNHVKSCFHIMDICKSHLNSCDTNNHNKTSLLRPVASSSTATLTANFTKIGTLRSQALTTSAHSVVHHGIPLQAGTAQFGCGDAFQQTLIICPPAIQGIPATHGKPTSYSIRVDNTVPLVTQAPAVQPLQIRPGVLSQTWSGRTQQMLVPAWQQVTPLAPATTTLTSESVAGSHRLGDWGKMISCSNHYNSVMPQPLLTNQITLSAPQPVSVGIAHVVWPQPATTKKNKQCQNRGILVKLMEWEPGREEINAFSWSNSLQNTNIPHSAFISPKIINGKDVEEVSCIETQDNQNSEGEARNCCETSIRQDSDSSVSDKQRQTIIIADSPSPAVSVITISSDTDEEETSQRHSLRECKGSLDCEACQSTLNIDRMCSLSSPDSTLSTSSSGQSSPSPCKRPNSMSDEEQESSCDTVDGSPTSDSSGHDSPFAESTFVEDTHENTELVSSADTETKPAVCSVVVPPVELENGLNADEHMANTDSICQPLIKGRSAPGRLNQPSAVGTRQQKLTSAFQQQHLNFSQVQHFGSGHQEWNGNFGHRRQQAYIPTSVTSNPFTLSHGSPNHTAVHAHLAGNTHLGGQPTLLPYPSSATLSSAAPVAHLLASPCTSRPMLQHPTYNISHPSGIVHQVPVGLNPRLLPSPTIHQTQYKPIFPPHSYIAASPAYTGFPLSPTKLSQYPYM

[15] = target: Protein kinase C epsilon type (Homo sapiens) (UniProt Q02156); test: Inhibition of human PRKCE assessed as percent of control at 2000 nM by KINOMEscan assay relative to control
[16] = target: Mitogen-activated protein kinase kinase kinase 11 (Homo sapiens) (UniProt Q16584); test: Inhibition of human MLK3 assessed as percent of control at 2000 nM by KINOMEscan assay relative to control
[17] = target: Casein kinase I isoform gamma-3 (Homo sapiens) (UniProt Q9Y6M4); test: Inhibition of human CSNK1G3 assessed as percent of control at 2000 nM by KINOMEscan assay relative to control
[18] = target: Serine/threonine-protein kinase PAK 4 (Homo sapiens) (UniProt O96013); test: Inhibition of human PAK4 assessed as percent of control at 2000 nM by KINOMEscan assay relative to control
Serine/threonine-protein kinase PAK 4 (Homo sapiens), sequence (O96013 whole entry, looked up): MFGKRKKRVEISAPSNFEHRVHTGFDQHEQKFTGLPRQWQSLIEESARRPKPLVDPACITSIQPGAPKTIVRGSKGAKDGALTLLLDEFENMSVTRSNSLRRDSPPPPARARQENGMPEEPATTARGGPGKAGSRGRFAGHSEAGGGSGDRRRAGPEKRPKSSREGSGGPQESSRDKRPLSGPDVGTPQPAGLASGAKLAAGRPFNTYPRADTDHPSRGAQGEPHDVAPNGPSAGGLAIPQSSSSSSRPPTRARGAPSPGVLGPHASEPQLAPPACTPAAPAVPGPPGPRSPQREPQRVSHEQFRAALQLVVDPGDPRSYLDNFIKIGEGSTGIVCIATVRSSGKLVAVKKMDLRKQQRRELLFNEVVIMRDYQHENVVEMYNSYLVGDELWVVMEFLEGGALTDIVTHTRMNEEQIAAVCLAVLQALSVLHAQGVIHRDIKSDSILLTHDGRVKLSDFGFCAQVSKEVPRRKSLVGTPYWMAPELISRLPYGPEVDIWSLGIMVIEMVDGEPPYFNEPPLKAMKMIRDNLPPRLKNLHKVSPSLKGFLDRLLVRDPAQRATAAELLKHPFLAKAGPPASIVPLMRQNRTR

[19] = target: Serine/threonine-protein kinase PLK4 (Homo sapiens) (UniProt O00444); test: Inhibition of human PLK4 assessed as percent of control at 2000 nM by KINOMEscan assay relative to control
[20] = target: Mitogen-activated protein kinase kinase kinase 19 (Homo sapiens) (UniProt Q56UN5); test: Inhibition of human YSK4 assessed as percent of control at 2000 nM by KINOMEscan assay relative to control
[21] = target: BDNF/NT-3 growth factors receptor (Homo sapiens) (UniProt Q16620); test: Inhibition of human TRKB assessed as percent of control at 2000 nM by KINOMEscan assay relative to control
[22] = target: Serine/threonine-protein kinase STK11 (Homo sapiens) (UniProt Q15831); test: Inhibition of human LKB1 assessed as percent of control at 2000 nM by KINOMEscan assay relative to control
[23] = target: Interleukin-1 receptor-associated kinase 4 (Homo sapiens) (UniProt Q9NWZ3); test: Inhibition of human IRAK4 assessed as percent of control at 2000 nM by KINOMEscan assay relative to control
Interleukin-1 receptor-associated kinase 4 (Homo sapiens), sequence (Q9NWZ3 whole entry, canonical isoform): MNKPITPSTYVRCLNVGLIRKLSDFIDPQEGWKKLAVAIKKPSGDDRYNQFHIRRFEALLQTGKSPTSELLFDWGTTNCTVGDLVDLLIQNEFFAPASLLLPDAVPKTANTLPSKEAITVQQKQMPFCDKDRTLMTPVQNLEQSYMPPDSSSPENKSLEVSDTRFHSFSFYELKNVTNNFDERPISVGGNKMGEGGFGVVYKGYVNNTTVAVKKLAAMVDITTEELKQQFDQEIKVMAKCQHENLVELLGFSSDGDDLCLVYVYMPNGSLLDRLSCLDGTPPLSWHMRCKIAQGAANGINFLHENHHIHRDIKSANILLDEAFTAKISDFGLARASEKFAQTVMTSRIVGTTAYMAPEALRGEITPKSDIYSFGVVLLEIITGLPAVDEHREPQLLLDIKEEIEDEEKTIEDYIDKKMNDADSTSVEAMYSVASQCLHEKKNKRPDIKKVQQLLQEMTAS

[24] = target: Phosphatidylinositol 4,5-bisphosphate 3-kinase catalytic subunit alpha isoform (Homo sapiens) (UniProt P42336); test: Inhibition of human PIK3CA assessed as percent of control at 2000 nM by KINOMEscan assay relative to control
[25] = target: Ephrin type-B receptor 6 (Homo sapiens) (UniProt O15197); test: Inhibition of human EPHB6 assessed as percent of control at 2000 nM by KINOMEscan assay relative to control
[26] = target: Serine/threonine-protein kinase Nek6 (Homo sapiens) (UniProt Q9HC98); test: Inhibition of human NEK6 assessed as percent of control at 2000 nM by KINOMEscan assay relative to control
[27] = target: Ephrin type-B receptor 2 (Homo sapiens) (UniProt P29323); test: Inhibition of human EPHB2 assessed as percent of control at 2000 nM by KINOMEscan assay relative to control
[28] = target: Tyrosine-protein kinase receptor UFO (Homo sapiens) (UniProt P30530); test: Inhibition of human AXL assessed as percent of control at 2000 nM by KINOMEscan assay relative to control
[29] = target: Calcium/calmodulin-dependent protein kinase type 1D (Homo sapiens) (UniProt Q8IU85); test: Inhibition of human CAMK1D assessed as percent of control at 2000 nM by KINOMEscan assay relative to control
[30] = target: Receptor tyrosine-protein kinase erbB-3 (Homo sapiens) (UniProt P21860); test: Inhibition of human ERBB3 assessed as percent of control at 2000 nM by KINOMEscan assay relative to control
[31] = target: Serine/threonine-protein kinase SIK3 (Homo sapiens) (UniProt Q9Y2K2); test: Inhibition of human QSK assessed as percent of control at 2000 nM by KINOMEscan assay relative to control

CN(C)C(=O)c1ccc(N2CCCN(c3ccnc4sc(C(N)=O)c(N)c34)CC2)cc1 was tested. Which Activity [1] did it give?
The Activity was 98% and 86%.

And the Activity [2]?
The Activity was 96% and 92%.

And the Activity [3]?
The Activity was 100% and 96%.

What about the Activity [4] of the same compound?
The Activity was 94% and 82%.

And the Activity [5]?
The Activity was 88% and 68%.

And the Activity [6]?
Its Activity is 98% and 73%.

And the Activity [7]?
The Activity was 92% and 100%.

What about the Activity [8] of the same compound?
The Activity was 73% and 59%.

And the Activity [9]?
The Activity was 100%.

And the Activity [10]?
Its Activity is 95% and 100%.

And the Activity [11]?
Its Activity is 94% and 75%.

And the Activity [12]?
The Activity was 100% and 86%.

And the Activity [13]?
The Activity was 100% and 95%.

And the Activity [14]?
Its Activity is 77% and 81%.

What about the Activity [15] of the same compound?
The Activity was 93% and 97%.

And the Activity [16]?
The Activity was 99% and 100%.

And the Activity [17]?
Its Activity is 95% and 80%.

And the Activity [18]?
The Activity was 87% and 100%.

What about the Activity [19] of the same compound?
Its Activity is 95% and 92%.

And the Activity [20]?
The Activity was 74% and 53%.

What about the Activity [21] of the same compound?
The Activity was 88% and 78%.

What about the Activity [22] of the same compound?
Its Activity is 100% and 87%.

And the Activity [23]?
Its Activity is 89% and 78%.

What about the Activity [24] of the same compound?
The Activity was 100% and 79%.

What about the Activity [25] of the same compound?
The Activity was 95% and 89%.

And the Activity [26]?
The Activity was 92% and 100%.

And the Activity [27]?
The Activity was 99% and 95%.

What about the Activity [28] of the same compound?
The Activity was 99% and 96%.

What about the Activity [29] of the same compound?
Its Activity is 87% and 93%.

And the Activity [30]?
The Activity was 100% and 88%.

What about the Activity [31] of the same compound?
The Activity was 89% and 97%.
